Assay results: paper PMC7948422, “Repurposing p97 inhibitors for chemical modulation of the bacterial ClpB–DnaK bichaperone system” (The Journal of Biological Chemistry, 2020)
“Also recorded” adds a separate entry of the source.

Experiments:
[1] = system: ΔclpB E. coli expressing ClpB–YFP; assay: Viability of ΔclpB strain expressing ClpB-YFP; format: cell-based, Escherichia coli; conditions: 45 °C, 3 h
Procedure: E. coli MC4100, MC4100ΔclpB, dnaK103, and dnaK756 strains were used to determine an influence of DBeQ on bacterial growth and viability. Bacteria were maintained in the LB media, and in the case of the MC4100ΔclpB strain, LB was supplemented with 30 μg/ml kanamycin. All experiments were initiated by preparing overnight cultures inoculated from single colonies and grown at 37 °C. The dnaK103 and dnaK756 overnight cultures were grown at 30 °C. On the following day, the cultures were diluted 100-fold in 10 ml of LB without antibiotics and incubated at 37 °C. The culture optical density was monitored at 600 nm. When absorbance at 600 nm reached 0.4, the culture was divided into 1-ml aliquots and supplemented with 10 μl of DMSO or different concentrations of DBeQ in DMSO. The samples were immediately transferred into an incubator/shaker at temperature 37, 45, or 50 °C. Bacteria were cultured for up to 4 h with shaking (200 RPM). […] On the following day, the bacterial colonies were counted and the colony-forming units/ml were calculated.
Supplementary Figure 10. […] (Top) ClpB was detected using Western blotting. […]
(Bottom) Western blot analysis of the bacterial lysates with anti-ClpB antibody. […] The detected signals correspond to the full-length ClpB-YFP (ClpB95-YFP) and the N-terminally truncated ClpB80-YFP (1,2). […]

[2] = parameters: method as in PMID 21383145; conditions: cited from earlier work
E. coli MC4100 = assay: Bacterial growth and viability, E. coli MC4100; format: cell-based, Escherichia coli
Procedure: E. coli MC4100, MC4100ΔclpB, dnaK103, and dnaK756 strains were used to determine an influence of DBeQ on bacterial growth and viability. Bacteria were maintained in the LB media, and in the case of the MC4100ΔclpB strain, LB was supplemented with 30 μg/ml kanamycin. All experiments were initiated by preparing overnight cultures inoculated from single colonies and grown at 37 °C. The dnaK103 and dnaK756 overnight cultures were grown at 30 °C. On the following day, the cultures were diluted 100-fold in 10 ml of LB without antibiotics and incubated at 37 °C. The culture optical density was monitored at 600 nm. When absorbance at 600 nm reached 0.4, the culture was divided into 1-ml aliquots and supplemented with 10 μl of DMSO or different concentrations of DBeQ in DMSO. The samples were immediately transferred into an incubator/shaker at temperature 37, 45, or 50 °C. Bacteria were cultured for up to 4 h with shaking (200 RPM). At specific time points, 100 μl of each culture was withdrawn and serially diluted in sterile 0.9% NaCl up to 10^6-fold dilution. To estimate the number of viable cells, 5 μl or 10 μl of the diluted cultures was spread on the LB-agar plate without an antibiotic. After a complete adsorption of liquid on the LB-agar surface, the plates were incubated overnight at 37 °C. On the following day, the bacterial colonies were counted and the colony-forming units/ml were calculated.

DnaK NBD [3] = biological target: T1, DnaK NBD (Escherichia coli, UniProt P0A6Y8); assay: DnaK NBD ATPase activity assay; format: biochemical; conditions: 100 µM DBeQ, 37 °C
T1 construct: the NBD of E. coli DnaK (residues 1–388); His-tag (pET28a) (C); made in house; host or cells: E. coli BL21(DE3)
Procedure: To determine the ATPase activity of DnaK, 18 μl of DnaK solution or DnaK NBD solution prepared in buffer C was mixed with 1 μl of the investigated compounds or DMSO as a control. Samples without DnaK were used as control blanks. The samples were preincubated for 10 min at 37 °C. The reaction was initiated by adding 1 μl of 100-mM ATP bringing the final concentration of DnaK to 1.1 μM or DnaK NBD to 3.4 μM. The samples were incubated at 37 °C for 70 min for DnaK or 75 min for NBD. The concentration of inorganic phosphate produced from ATP in the presence of DnaK was determined as described above for ClpB.

DnaK NBD [4] = biological target: T1, DnaK NBD; assay: Surface plasmon resonance, immobilized DnaK NBD; format: binding
Procedure: ClpB, DnaK, and the NBD of DnaK were extensively dialyzed against the SPR buffer (20-mM Hepes, pH 7.4, 150-mM NaCl, 20-mM MgCl2, 1-mM EDTA, 1-mM DTT). After dialysis, the protein concentration was determined by the Bradford method. The DBeQ–protein interactions were studied using a Biacore T200 instrument (GE Healthcare) at 25 °C. The proteins were diluted to 300 μg/ml in 10-mM sodium acetate buffer (pH 5 for ClpB DnaK or pH 4 for NBD) and immobilized on HC1500M sensor chips (Xantec) by standard amine coupling chemistry as described previously ([70]). A reference flow cell was created by ethyl(dimethylaminopropyl) carbodiimide/N-hydroxysuccinimide activation followed by quenching with 1 M ethanolamine (pH 9.0). Solvent correction curves were obtained at the beginning and end and after every 50 injection cycles by injecting varying DMSO concentrations (4.0, 4.4, 4.6, 4.8, 5.0, 5.2, 5.4, and 5.9% [v/v]). […]
Binding isotherms were obtained with the ligand diluted to different concentrations in the SPR running buffer HBSMTD (20-mM Hepes, pH 7.4, 140-mM NaCl, 20-mM MgCl2, 5% (v/v) DMSO, 0.005% (v/v) Tween-20). […] The dissociation constants determined from those experiments were ∼20 μM for ATPγS and ∼2 mM for adenosine. […]
The resulting sensorgrams were analyzed using Biacore T200 Evaluation Software v3.0 according to the following procedure. […]

T1 sequence (P0A6Y8 1-388): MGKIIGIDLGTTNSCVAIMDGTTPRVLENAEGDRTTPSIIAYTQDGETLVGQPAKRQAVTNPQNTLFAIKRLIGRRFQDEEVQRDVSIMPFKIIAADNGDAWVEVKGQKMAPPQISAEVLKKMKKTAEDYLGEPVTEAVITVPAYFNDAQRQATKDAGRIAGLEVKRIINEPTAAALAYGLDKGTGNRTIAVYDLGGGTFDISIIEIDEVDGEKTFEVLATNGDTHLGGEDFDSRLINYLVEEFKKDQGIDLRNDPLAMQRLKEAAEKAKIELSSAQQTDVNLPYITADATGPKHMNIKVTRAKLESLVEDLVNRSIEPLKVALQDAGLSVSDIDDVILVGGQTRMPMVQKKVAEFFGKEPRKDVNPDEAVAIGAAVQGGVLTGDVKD

## c1ccc(CNc2nc(NCc3ccccc3)c3ccccc3n2)cc1 [DBeQ, N^2,N^4-dibenzylquinazoline-2,4-diamine]
[1]
  susceptibility of ΔclpB strain on expression of ClpB–YFP: susceptibility to DBeQ was restored
[2]
  solubility in aqueous buffers: limited
E. coli MC4100; MC4100, 37 °C
  effect on growth of E. coli: suppressed the growth; also recorded: inhibited the growth
E. coli MC4100; MC4100, 45 °C
  effect on viability of E. coli under heat shock: exacerbated by heat shock; also recorded: strongly inhibited
E. coli MC4100; MC4100, 50 °C
  effect on viability of E. coli at severe heat shock: lost viability at the lowest DBeQ concentrations tested
DnaK NBD [3]
  effect on ATPase activity of isolated DnaK NBD: did not inhibit
DnaK NBD [4]
  Kd: 95 ± 16 µM
DnaK NBD [4]; SPR
  Bmax (SPR signal at saturation), DnaK NBD: 1.98 ± 0.20
